Results on five compounds are retold here after patent publication US12162878B2 (HINOVA PHARMACEUTICALS INC., priority 2018, dated 2024).

One assay concerns the target BRD3(1,2) (Homo sapiens (Human), UniProt Q15059). As to the kind of experiment: AlphaScreen binding of compounds on BRD3 (D1+D2). Particulars: read-out: IC50 against BRD3(1,2). The text has this:
(§1) Homogeneous time-resolved fluorescence technology (HTRF) was used to determine the binding effect of compounds on BRD4 (D1+D2) and BRDT (D1) proteins, as well as AlphaScreen method was used to detect the binding effect of compounds on BRD2 (D1+D2) and BRD3 (D1+D2) proteins.
(§2) The compounds were screened in vitro, and each compound was serially diluted to 10 concentrations. Four proteins BRD4 (D1+D2), BRDT (D1), BRD2 (D1+D2) and BRD3 (D1+D2) were chosen to determine the IC50 values of compounds (see Table 1).
(§3) 4. Compound treatment: The test compound was dissolved in dimethyl sulfoxide (DMSO), and the storage concentration was 10 mM.
(§4) 6. AlphaScreen Detection Procedures:
(§5) 1) Preparing One-Fold Concentration of Detection Buffer
(§6) One-fold concentration of detection buffer was prepared (Improved HEPES buffer)
(§7) 2) Gradient Dilution of Compounds
(§8) Echo automatic sampler was used to transfer the compound to the detection plate for gradient dilution, so that the final concentration of dimethyl sulfoxide was 0.1%.
(§9) 3) Preparation of Protein Solution
(§10) The protein was dissolved in one-fold concentration of detection buffer.
(§11) 4) Preparation of Substrate Solution
(§12) The peptide was dissolved in one-fold concentration of detection buffer to prepare the substrate solution.
(§13) 5) 5 μL protein solution was transferred to the detection plate, and one-fold concentration of detection buffer (5 μL) was placed in the negative control wells.
(§14) 6) The plate was incubated for 15 min at room temperature.
(§15) 7) 5 μL substrate solution was added to each well to start the reaction.
(§16) 8) The plate was incubated for additional 60 min at room temperature.
(§17) 9) Preparation of acceptor solution and donor solution in one-fold concentration of assay buffer Acceptor solution (15 μL) and donor solution (15 μL) were respectively added, and then incubated at room temperature for 60 min and protected against exposure to light.
(§18) 10) The endpoint was read in EnSpire and Alpha mode.
(§19) The experimental data were recorded in an Excel file and equation (1) was used to get the inhibition rate. Inh%=(Max−Signal)/(Max−Min)*100 Equation (1):
(§20) The obtained data were input into GraphPad software, and equation (2) was used to obtain the IC50 value. Y=Bottom+(Top−Bottom)/(1+10^((Log IC50−X)*Hill Slope)) Formula (2): […]
(§21) Wherein, Y axis was the inhibition rate, and the X axis was the compound concentration.
(In general: In Alpha technology, singlet oxygen from a donor bead excites a nearby acceptor bead.)

The next assay deals with BRD4(1,2) (Homo sapiens (Human), UniProt O60885). As to the kind of experiment: HTRF binding of compounds on BRD4 (D1+D2). As to conditions: read-out: IC50 against BRD4(1,2).
From the text: as §1, §2, §3
(§22) 5. Steps for Homogeneous Time-Resolved Fluorescence Detection:
(§23) 1) According to the arrangement of the detection plate, all compounds were diluted in Echo plate.
(§24) The final dilution concentration of DMSO is 0.1%.
(§25) 2) The compound or DMSO was transferred to a 384-well detection plate with the Echo automatic sampler.
(§26) 3) Two-fold concentration of the mixture of protein and peptide was added to the detection plate.
(§27) 4) Two-fold concentration of mixed detection solution was added to the test plate, and shaken for 30 s.
(§28) 5) Incubating for 2 h at room temperature.
(§29) 6) Fluorescence signal was read on Envision multi-function microplate reader (excitation light wavelength being 340 nm, and emission light wavelength being 615 nm and 665 nm).
(§30) The experimental data were recorded in an Excel file, and equation (1) was used to obtain the inhibition rate. Inh%=(Max−Signal)/(Max−Min)*100 Equation (1):
(§31) The obtained data was recorded in GraphPad software, and equation (2) was used to provide the IC50 values. Y=Bottom+(Top−Bottom)/(1+10^((Log IC50−X)*Hill Slope)) Equation (2): […]
(§32) Y axis was the inhibition rate, and X axis was the compound concentration.
(In general: Time-resolved FRET reads energy transfer from a long-lived donor to a nearby acceptor.)

A further assay addresses BRDT(D1) (Homo sapiens (Human), UniProt Q58F21). Nature of the assay: HTRF binding of compounds on BRDT (D1). Particulars: read-out: IC50 against BRDT(D1).
From the text: as §1, §2, §3, §22, §23, §24, §25, §26, §27, §28, §29, §30, §31, §32

The next assay addresses BRD2(1,2) (Homo sapiens (Human), UniProt P25440). As to the kind of experiment: AlphaScreen binding of compounds on BRD2 (D1+D2). Particulars: read-out: IC50 against BRD2(1,2).
From the text: as §1, §2, §3, §4, §5, §6, §7, §8, §9, §10, §11, §12, §13, §14, §15, §16, §17, §18, §19, §20, §21

For another assay, the system named is CWR22RV1 cells. Nature of the assay: Inhibition of proliferation of CWR22RV1 cells (CCK-8). The class given is cell-based, human. Particulars: 6 days. Summed up: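 Cells seeded at 1500/well, cultured overnight, then exposed to compounds in 3-fold dilutions (9 concentrations from 10 μM top final, 0.1% DMSO) for 6 days at 37 °C. Viability read by CCK-8 absorbance at 450 nm after 2.5 h; IC50 from dose-response inhibition fit.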

The structures appear in SMILES notation.

Sequence of BRD2(1,2) (P25440 65-459): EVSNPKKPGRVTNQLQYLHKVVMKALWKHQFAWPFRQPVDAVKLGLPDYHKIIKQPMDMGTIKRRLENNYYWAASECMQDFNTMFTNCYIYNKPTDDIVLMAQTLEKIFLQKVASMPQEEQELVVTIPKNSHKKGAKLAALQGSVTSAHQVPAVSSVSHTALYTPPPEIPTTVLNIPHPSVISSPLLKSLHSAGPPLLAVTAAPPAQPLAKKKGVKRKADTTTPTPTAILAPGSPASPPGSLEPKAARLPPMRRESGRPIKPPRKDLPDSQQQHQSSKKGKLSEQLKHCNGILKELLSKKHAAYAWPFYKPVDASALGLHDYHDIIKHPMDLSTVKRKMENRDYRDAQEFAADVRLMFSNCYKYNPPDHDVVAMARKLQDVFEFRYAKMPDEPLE
Sequence of BRD3(1,2) (Q15059 29-417): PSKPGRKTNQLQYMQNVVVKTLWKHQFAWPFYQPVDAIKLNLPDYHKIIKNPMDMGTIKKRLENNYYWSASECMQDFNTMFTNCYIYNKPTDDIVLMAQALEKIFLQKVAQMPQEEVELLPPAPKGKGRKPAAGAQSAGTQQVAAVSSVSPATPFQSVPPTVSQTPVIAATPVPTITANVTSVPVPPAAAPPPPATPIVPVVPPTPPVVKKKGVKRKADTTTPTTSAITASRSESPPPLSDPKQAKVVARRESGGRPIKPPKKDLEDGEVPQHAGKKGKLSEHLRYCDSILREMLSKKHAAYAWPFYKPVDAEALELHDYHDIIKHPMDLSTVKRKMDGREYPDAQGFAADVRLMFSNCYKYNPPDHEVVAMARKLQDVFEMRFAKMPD

In general, IC50 refers to the concentration that gives 50% inhibition. On to `[2H]C([2H])([2H])n1cc(-c2cc(S(C)(=O)=O)ccc2N2CCC3(CC2)CC3)c2cc[nH]c2c1=O` [Compound 56, 6-trideuteromethyl-4-(5(methylsulfonyl)-2-(6-aza-spiro[2.5]octan-6-yl)phenyl)-1H-pyrrolo[2,3-c]pyridin-7(6H)-one], for which the IC50 is 4.3 nM at BRD3(1,2); 7.1 nM at BRD4(1,2); 21 nM on BRDT(D1); 1.1 nM on BRD2(1,2); 3 nM in the assay on CWR22RV1 cells (Homo sapiens, CWR22Rv1, 144 h).
As for `[2H]C([2H])([2H])n1cc(-c2cc(S(=O)(=O)N3CC[C@@H](O)C3)ccc2N2CCC3(CC2)CC3(F)F)c2cc[nH]c2c1=O` [Compound 240, (R)-4-(2-(1,1-difluoro-6-aza-spiro[2.5]octan-6-yl)-5-((3-hydroxylpyrrolidin-1-yl)sulfonyl)phenyl)-6-trideuteromethyl-1H-pyrrolo[2,3-c]pyridin-7(6H)-one], the IC50 on BRD3(1,2) worked out at 4.3 nM; at BRD4(1,2), 6.4 nM; at BRDT(D1) it was 21 nM; at BRD2(1,2), 1.2 nM; in the assay on CWR22RV1 cells (Homo sapiens, CWR22Rv1, 144 h), 4.8 nM.
On to `[2H]C([2H])([2H])n1cc(-c2cc(S(=O)(=O)NC)ccc2N2CCC3(CC2)CC3)c2cc[nH]c2c1=O` [Compound 202, N-methyl-3-(6-trideuteromethyl-7-oxo-6,7-dihydro-1H-pyrrolo [2,3-c]pyridin-4-yl)-4-(6-aza-spiro[2.5]octan-6-yl)benzenesulfonamide], for which the IC50 at BRD3(1,2) was 4.5 nM; at BRD4(1,2), 5.1 nM; on BRDT(D1), 16 nM; on BRD2(1,2), 1.6 nM; in the assay with CWR22RV1 cells (Homo sapiens, CWR22Rv1, 144 h), 0.5 nM.
As for `[2H]C([2H])([2H])n1cc(-c2cc(S(=O)(=O)CC)ccc2N2CCC3(CC2)CC3(F)F)c2cc[nH]c2c1=O` [Compound 250, 4-(2-(1,1-difluoro-6-aza-spiro[2.5]octan-6-yl)-5-(ethylsulfonyl)phenyl)-6-trideuteromethyl-1H-pyrrolo[2,3-c]pyridin-7(6H)-one], the 50% inhibitory concentration (IC50) on BRD3(1,2) worked out at 4.1 nM; on BRD4(1,2), 4.3 nM; at BRDT(D1), 15 nM; on BRD2(1,2) it was 1.5 nM; in the assay with CWR22RV1 cells it was 120 nM.
In the case of `[2H]C([2H])([2H])n1cc(-c2cc(S(=O)(=O)N3CC[C@H](O)C3)ccc2N2CCC3(CC2)CC3(F)F)c2cc[nH]c2c1=O` [Compound 241, (S)-4-(2-(1,1-difluoro-6-aza-spiro[2.5]octan-6-yl)-5-((3-hydroxylpyrrolidin-1-yl)sulfonyl)phenyl)-6-trideuteromethyl-1H-pyrrolo[2,3-c]pyridin-7(6H)-one], the IC50 at BRD3(1,2) was 4.1 nM; on BRD4(1,2) it was 5.8 nM; at BRDT(D1) it was 17 nM; on BRD2(1,2), 1.2 nM; in the assay on CWR22RV1 cells (Homo sapiens, CWR22Rv1, 144 h), 1.7 nM.
